Test results published in patent US20260184704A1, “NLRP3 INFLAMMASOME INHIBITORS AND USES THEREOF” (Insilico Medicine IP Limited, priority 2023, published 2026).

Experiments:
[1] = system: THP-1 cells, IL-1β release; test: IL-1β Release THP-1 Assay (Example B-3); type: cell-based; settings: Homo sapiens; PMA-differentiated THP-1 cells, LPS then Nigericin, IL-1β by Elisa; read-out: Potency, THP-1 IL-1β, IC50 (nM), Example B-3
Experimental: Example B-3: IL-1β Release THP-1 Assay
THP-1 cells Culture RPMI1640 medium, 10% FBS, 1% PS, 55 uM β-Mer at 37° C. & 5% CO2 incubator.
IL-1β Release Detection • 1) Seed THP-1 in complete RPMI 1640 medium containing PMA into 96 well plate coated with poly-L-lysin incubate for 24 hours. • 2) Remove medium, wash the differentiated THP-1 cells with PBS, add FBS free RPMI 1640 medium. • 3) Add LPS and incubate for 3 hours at 37° C. & 5% CO2 incubator. • 4) Add compounds and incubate for 30 minutes at 37° C. & 5% CO2 incubator. • 5) Add Nigericin and incubate for 1 hour at 37° C. & 5% CO2 incubator. • 6) Collect supernatant to test IL-1β by Elisa.
• a) Assay robustness check with DMSO and Low control data:
[formula] • X: cpd concentration • Y: change % • Top and Bottom: Plateaus in same units as Y • logIC50: same log units as X • HillSlope: Slope factor or Hill slope

NLRP3 = molecular target: T1, NLRP3 (Homo sapiens, UniProt Q96P20); test: NLRP3 Enzymatic Activity ADP-Glo Assay (Example B-4); type: biochemical; settings: hydrolysis of ATP by NLRP3; NLRP3 15 nM, ATP 1 μM; read-out: NLRP3_ADP-Glo_IC50 (nM), Example B-4
T1 construct: purchased ICE YM2306T-H06MHS
Experimental: Example B-4: NLRP3 Enzymatic Activity ADP-Glo Assay
NLRP3 activity test experiment, measuring the hydrolysis of NLRP3 on the substrate ATP using the ADP-Glo assay. First, after adding an inhibitor containing 0.5% DMSO with Echo, add 5 μL of NLRP3 (ICE, YM2306T-H06MHS) enzyme solution to each well, centrifuge at 1000 rpm for 1 min at room temperature and react for 10 min. Then add 5 μL of ATP (Promega, V915A) substrate solution to each well for 90 min at room temperature; NLRP3 and ATP were prepared in 50 mM HEPES, 10 mM MgCl2, 0.01% Brij-35, 1 mM EGTA, and 2 mM DTT buffers at final concentrations of 15 nM and 1 μM, respectively. Subsequently, 10 μL ADP-Glo reagent solution (Promega, V9102) was added into each assay well, centrifuged at 1000 rpm for 1 min, and then incubated at room temperature for 45 min. Finally, 20 μL ADP-Glo detection solution (Promega, V9102) is added to each well, centrifuged at 1000 rpm for 1 min and reacted for 45 min at room temperature. The luminescence signal values were read using a BMG instrument and the IC50 values were determined by fitting the data to an S-shaped dose-response curve using nonlinear regression.

T1 sequence (Q96P20 whole entry): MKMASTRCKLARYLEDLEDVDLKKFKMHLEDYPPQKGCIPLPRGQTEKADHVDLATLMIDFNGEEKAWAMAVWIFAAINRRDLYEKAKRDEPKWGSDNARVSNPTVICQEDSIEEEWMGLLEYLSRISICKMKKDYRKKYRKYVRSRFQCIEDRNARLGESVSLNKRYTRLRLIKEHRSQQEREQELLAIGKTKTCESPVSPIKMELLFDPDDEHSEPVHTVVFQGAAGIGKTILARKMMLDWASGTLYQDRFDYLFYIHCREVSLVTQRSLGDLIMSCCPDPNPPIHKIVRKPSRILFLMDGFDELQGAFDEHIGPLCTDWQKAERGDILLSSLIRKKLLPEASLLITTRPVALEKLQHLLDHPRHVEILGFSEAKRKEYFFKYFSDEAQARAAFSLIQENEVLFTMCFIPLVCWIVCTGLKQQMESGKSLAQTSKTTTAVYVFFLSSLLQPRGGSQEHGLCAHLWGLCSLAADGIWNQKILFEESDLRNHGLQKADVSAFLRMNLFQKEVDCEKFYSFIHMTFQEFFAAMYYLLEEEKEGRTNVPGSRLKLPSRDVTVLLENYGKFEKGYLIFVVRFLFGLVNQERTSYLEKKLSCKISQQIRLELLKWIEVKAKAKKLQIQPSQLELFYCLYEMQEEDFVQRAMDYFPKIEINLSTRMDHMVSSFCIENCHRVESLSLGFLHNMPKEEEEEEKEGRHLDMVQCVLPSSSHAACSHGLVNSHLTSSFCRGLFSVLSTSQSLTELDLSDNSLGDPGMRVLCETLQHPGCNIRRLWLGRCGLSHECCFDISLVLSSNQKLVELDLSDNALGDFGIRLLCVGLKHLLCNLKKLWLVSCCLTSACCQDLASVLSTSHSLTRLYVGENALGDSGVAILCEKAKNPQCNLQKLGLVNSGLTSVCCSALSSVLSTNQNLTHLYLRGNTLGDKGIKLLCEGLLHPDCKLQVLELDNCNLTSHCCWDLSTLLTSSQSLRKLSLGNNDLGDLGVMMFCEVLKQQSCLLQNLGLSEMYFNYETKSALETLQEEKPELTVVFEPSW

| Compound | IC50 [1] | IC50 (NLRP3) |
| --- | --- | --- |
| Cc1cc(C(F)(F)F)cc(O)c1C1=NN=C(N[C@@H]2C[C@H](O)CN(C)C2)SC1 (single isomer, unassigned) [Compound 16] | 10 to 100 nM | – |
| Cc1cc(C(F)(F)F)cc(O)c1C1=NN=C(N2CCC[C@@H]2[C@@H](C)O)SC1 (single isomer, unassigned) [Compound 33] | – | > 1000 nM |
| Cc1cc(C(F)(F)F)cc(O)c1C1=NN=C(N2CCC[C@@H]2[C@H](C)O)SC1 (single isomer, unassigned) [Compound 34] | – | > 1000 nM |
| Cc1cc(C(F)(F)F)cc(O)c1C1=NN=C(N[C@@H]2CCCN(C)C2)SC1 [Compound 1] | < 10 nM | 10 to 100 nM |
| Cc1cc(C(F)(F)F)cc(O)c1C1=NN=C(N[C@@H]2CCCNC2)SC1 [Compound 2] | < 10 nM | – |
| CCN1CCC[C@@H](NC2=NN=C(c3c(C)cc(C(F)(F)F)cc3O)CS2)C1 [Compound 3] | < 10 nM | – |
| CC1SC(N[C@@H]2CCCN(C)C2)=NN=C1c1ccc(C(F)(F)F)cc1O (stereo partly shown) [Compound 5] | 100 to 1000 nM | – |
| Cc1cc(C(F)(F)F)cc(O)c1C1=NN=C(N[C@@H]2CCCN(CCO)C2)SC1 [Compound 6] | < 10 nM | – |
| Cc1cc(C(F)(F)F)cc(O)c1C1=NN=C(N[C@@H]2CCC[C@H](O)C2)SC1 [Compound 7] | 10 to 100 nM | – |
| Cc1cc(C(F)(F)F)cc(O)c1C1=NN=C(N[C@@H]2C[C@H](F)CN(C)C2)SC1 [Compound 9] | 10 to 100 nM | – |
| Cc1cc(C(F)(F)F)cc(O)c1C1=NN=C(N[C@@H]2CCN(C)C2)SC1 [Compound 11] | 10 to 100 nM | – |
| Cc1cc(C(F)(F)F)cc(O)c1C1=NN=C(N[C@@H]2CCCN(C3COC3)C2)SC1 [Compound 17] | 10 to 100 nM | – |
| Cc1cc(C(F)(F)F)cc(O)c1C1=NN=C(N[C@H]2CN3CCC2CC3)SC1 [Compound 20] | 10 to 100 nM | – |
| Cc1cc(OC(F)F)cc(O)c1C1=NN=C(N[C@@H]2CCCN(C)C2)SC1 [Compound 21] | 10 to 100 nM | – |
| Cc1cc(C(F)(F)F)cc(O)c1C1=NN=C(Nc2cc[nH]n2)SC1 [Compound 22] | 100 to 1000 nM | – |
| COc1cc(C)c(C2=NN=C(N[C@@H]3CCCN(C)C3)SC2)c(O)c1 [Compound 23] | < 10 nM | 10 to 100 nM |
| Cc1cc(C(F)(F)F)cc(O)c1C1=NN=C(N[C@H]2C[C@@H](O)C2)SC1 [Compound 24] | 100 to 1000 nM | – |
| Cc1cc(OC(F)F)cc(O)c1C1=NN=C(N[C@H]2C[C@@](C)(O)C2)SC1 [Compound 25] | 10 to 100 nM | 10 to 100 nM |
| Cc1cc(C(F)(F)F)cc(O)c1C1=NN=C(NC[C@@H](C)O)SC1 [Compound 26] | 100 to 1000 nM | – |
| Cc1cc(C(F)(F)F)cc(O)c1C1=NN=C(N[C@H]2C[C@](O)(C(F)(F)F)C2)SC1 [Compound 29] | 10 to 100 nM | – |
| Cc1cc(Cl)cc(O)c1C1=NN=C(N[C@H]2C[C@@](C)(O)C2)SC1 [Compound 30] | 10 to 100 nM | 10 to 100 nM |

| Compound | IC50 [1] | IC50 (NLRP3) |
| --- | --- | --- |
| CNC(=O)CNC1=NN=C(c2c(C)cc(C(F)(F)F)cc2O)CS1 [Compound 32] | – | > 1000 nM |
| Cc1cc(C(F)(F)F)cc(O)c1C1=NN=C(N2CCC3CCN(C)CC32)SC1 (stereo not shown) [Compound 35] | 10 to 100 nM | 10 to 100 nM |
| Cc1cc(C(F)(F)F)cc(O)c1C1=NN=C(N[C@@H]2CCCN(C)C2)N(C)C1 [Compound 36] | 100 to 1000 nM | 100 to 1000 nM |
| Cc1cc(C#N)cc(O)c1C1=NN=C(N[C@@H]2CCCN(C)C2)SC1 [Compound 37] | 10 to 100 nM | 10 to 100 nM |
| Cc1cc(C#N)cc(O)c1C1=NN=C(N2CCC3CCN(C)CC32)SC1 (stereo not shown) [Compound 39] | – | 100 to 1000 nM |
| Cc1cc2c(c(O)c1C1=NN=C(N[C@@H]3CCCN(CCO)C3)SC1)CCO2 [Compound 40] | 10 to 100 nM | 10 to 100 nM |
| C[C@]1(O)C[C@@H](NC2=NN=C(c3c(O)cc(C(F)(F)F)cc3F)CS2)C1 [Compound 41] | – | 100 to 1000 nM |
| Cc1cc(C(F)(F)F)cc(OC(F)F)c1C1=NN=C(N[C@H]2C[C@@](C)(O)C2)SC1 [Compound 42] | – | > 1000 nM |
| Cc1cc(C(F)(F)F)cc(O)c1C1=NN=C(NCCC(N)=O)SC1 [Compound 43] | – | > 1000 nM |
| C[C@]1(O)C[C@@H](NC2=NN=C(c3c(O)cc(C(F)(F)F)cc3Cl)CS2)C1 [Compound 45] | 10 to 100 nM | 10 to 100 nM |
| CCN1CCC[C@@H](NC2=NN=C(c3c(C)cc4sccc4c3O)CS2)C1 [Compound 46] | < 10 nM | < 10 nM |
| Cc1cc2sccc2c(O)c1C1=NN=C(N[C@@H]2CCCN(CCO)C2)SC1 [Compound 47] | < 10 nM | < 10 nM |
| Cc1cc(C(F)(F)F)c(F)c(O)c1C1=NN=C(N[C@H]2C[C@@](C)(O)C2)SC1 [Compound 48] | 100 to 1000 nM | 10 to 100 nM |
| Cc1cc2c(cc1C1=NN=C(N[C@@H]3CCCN(C)C3)SC1)CCO2 [Compound 49] | – | > 1000 nM |
| Cc1cc2c(c(O)c1C1=NN=C(N[C@H]3C[C@@](C)(O)C3)SC1)CCC2 [Compound 50] | 10 to 100 nM | 10 to 100 nM |
| Cc1cc2c(c(O)c1C1=NN=C(N3CCC4CCN(C)CC43)SC1)CCO2 (stereo not shown) [Compound 51] | < 10 nM | 10 to 100 nM |
| Cc1cc(C(F)(F)F)cc(O)c1C1=NN=C(N[C@@H]2CCCN(C)C2)OC1 [Compound 52] | – | > 1000 nM |
| CCN1CCC[C@@H](NC2=NN=C(c3c(C)cc4c(c3O)CCO4)CS2)C1 [Compound 54] | – | < 10 nM |
| Cc1cc2c(c(O)c1C1=NN=C(N(C)[C@@H]3CCCN(C)C3)SC1)CCO2 [Compound 55] | – | 100 to 1000 nM |
| CC#Cc1cc(C)c(C2=NN=C(N[C@@H]3CCCN(C)C3)SC2)c(O)c1 [Compound 56] | – | 100 to 1000 nM |
| Cc1c(F)c2c(c(O)c1C1=NN=C(N[C@@H]3CCCN(C)C3)SC1)CCO2 [Compound 57] | 10 to 100 nM | 10 to 100 nM |

| Compound | IC50 [1] | IC50 (NLRP3) |
| --- | --- | --- |
| C[C@]1(O)C[C@@H](NC2=NN=C(c3c(C(F)(F)F)cc4c(c3O)CCO4)CS2)C1 [Compound 58] | 10 to 100 nM | 10 to 100 nM |
| C[C@]1(O)C[C@@H](NC2=NN=C(c3c(Cl)cc4c(c3O)CCO4)CS2)C1 [Compound 60] | 10 to 100 nM | 10 to 100 nM |
| Cc1c(F)c2c(c(O)c1C1=NN=C(N[C@H]3C[C@@](C)(O)C3)SC1)CCO2 [Compound 61] | – | 10 to 100 nM |
| Cc1cc2c(c(O)c1C1=NN=C(N[C@H]3C[C@@](C)(O)C3)SC1)COC2 [Compound 62] | – | 100 to 1000 nM |
| Cc1cc2c(c(O)c1C1=NN=C(NC34CCC(O)(CC3)C4)SC1)CCO2 [Compound 63] | – | 100 to 1000 nM |
| Cc1cc2c(c(O)c1C1=NN=C(N[C@H]3C[C@@](C)(O)C3)SC1)OCC2 [Compound 64] | – | 10 to 100 nM |
| Cc1cc2c(c(O)c1C1=NN=C(N[C@H]3C[C@](C)(O)C3)SC1)CCO2 [Compound 65] | – | 100 to 1000 nM |
| C[C@]1(O)C[C@@H](NC2=NN=C(c3c(C(F)F)cc4c(c3O)CCO4)CS2)C1 [Compound 66] | 10 to 100 nM | 10 to 100 nM |
| Cc1cc2c(c(O)c1C1=NN=C(N[C@H]3C[C@](C)(O)C3)SC1)CC2 [Compound 67] | 10 to 100 nM | 10 to 100 nM |
| Cc1cc2c(c(O)c1C1=NN=C(N[C@H]3C[C@@](C)(N)C3)SC1)CC2 [Compound 68] | 10 to 100 nM | 10 to 100 nM |
| Cc1cc2c(c(O)c1C1=NN=C(N[C@H]3C[C@](C)(N)C3)SC1)CC2 [Compound 69] | – | 100 to 1000 nM |
| Cc1cc2c(c(O)c1C1=NN=C(N[C@]34CC[C@](O)(C3)C4)SC1)CCO2 [Compound 70] | – | 100 to 1000 nM |
| [2H]C([2H])([2H])c1cc2c(c(O)c1C1=NN=C(N[C@H]3C[C@@](C)(O)C3)SC1)CCO2 [Compound 71] | – | 10 to 100 nM |
| Cc1cc2occc2c(O)c1C1=NN=C(N[C@H]2C[C@@](C)(O)C2)SC1 [Compound 72] | – | < 10 nM |
| Cc1cc(C(F)(F)F)cc(O)c1C1=NN=C(N[C@H]2C[C@@](C)(O)C2)CS1 [Compound 201] | 10 to 100 nM | 10 to 100 nM |
| Cc1cc(C(F)(F)F)cc(O)c1C1=NN=C(N[C@H]2C[C@@](C)(O)C2)C(C)(C)S1 [Compound 202] | 10 to 100 nM | 10 to 100 nM |
| Cc1cc2c(c(O)c1C1=NN=C(N[C@H]3C[C@@](C)(O)C3)CS1)CCO2 [Compound 203] | 10 to 100 nM | 10 to 100 nM |
| Cc1cc(Cl)cc(O)c1C1=NN=C(N[C@H]2C[C@@](C)(O)C2)CS1 [Compound 204] | < 10 nM | 10 to 100 nM |
| Cc1cc(Cl)cc(O)c1C1=NN=C(N[C@H]2C[C@](C)(N)C2)CS1 [Compound 207] | – | 100 to 1000 nM |
